pIC50: −log10 of the molar value.
Target: glucocorticoid receptor (GAL4 DBD-GR) (Homo sapiens (Human), UniProt P04150)
Experiment: GR cell-based assays (GRE agonist / GRE antagonist), CHO-Gal4/GR luciferase reporter
Conditions: read-out: IC50 or EC50
Excerpt: Potential selective glucocorticoid receptor modulators of this intervention can be tested for modulation of the activity of the glucocorticoid receptor using cell-based assays. These assays involve a Chinese hamster ovary (CHO) cell line which contains fragments of the glucocorticoid receptor as well as fusion proteins. The glucocorticoid receptor fragments used are capable of binding the ligand (e.g. beclomethasone) to identify molecules that compete for binding with glucocorticoid receptor ligands. In more detail, the glucocorticoid receptor ligand binding domain is fused to the DNA binding domain (DBD) of the transcription factor GAL4 (GAL4 DBD-GR) and is stably integrated into a CHO cell line containing a GAL4-UAS-Luciferase reporter construct. […] After cell lysis the luminescence that is produced by luciferase after addition of the substrate is detected and EC50 or IC50 values can be calcuated. Engagement of molecules which induce gene expression via glucocortocoid receptor binding to the DNA leads to expression of the luciferase gene under the control of the fusion protein GAL4 DBD-GR and therefore to a dose-dependent increase of the luminescence signal. Binding of molecules which repress beclomethasone-induced gene expression of the luciferase gene under the control of the fusion protein GAL4 DBD-GR leads to a dose-dependent reduction of the luminescence signal.
The reporter cell line CHO-Gal4/GR consisted of a chinese hamster ovary (CHO) cell line (Leibniz Institute DSMZ—German Collection of Microorganisms and Cell Cultures GmbH: ACC-110) containing a firefly luciferase gene under the control of the GR ligand binding domain fused to the DNA binding domain (DBD) of GAL4 (GAL4 DBD-GR) stably integrated into CHO cells. This cell line was established by stable transfection of CHO cells with a GAL4-UAS-Luciferase reporter construct. In a subsequent step the ligand binding domain of the GR cloned into pIRES2-EGFP-GAL4 containing the DNA binding domain of GAL4 from pFA-AT2 was transfected. This fusion construct activated firefly luciferase expression under the control of a multimerized GAL4 upstream activation sequence (UAS). The signal of the emitted luminescence was recorded by the FLIPR^TETRA. This allowed for specific detection of ligand-induced activation of the GR and therefore for the identification of compounds with agonistic properties. The GAL4/UAS reporter was premixed with a vector that constitutively expressed Renilla luciferase, which served as an internal positive control for transfection efficiency.
The complete culture medium for the assay was: • DMEM F-12 (1:1) MIXTURE (LONZA cat. No: BE04-687F/U1) 500 mL • 5 mL of 100 mM Sodium Pyruvate (LONZA cat. No: BE12-115E) • 25 mL of 7.5% Sodium Bicarbonate (LONZA cat. No BE17-613E) • 6.5 mL of 1 M Hepes (LONZA cat. No: BE17-737E) • 5 mL of 100× Penicillin/Streptomycin (LONZA cat. No DE17-602E) • 50 mL of Fetal Bovine Serum (Euroclone cat. No ECS 0180L) • 0.25 mL of 10 mg/mL Puromycin (InvivoGen cat.: ant-pr-1) • 0.5 mL of 100 mg/mL Zeocin (InvivoGen cat.: ant-zn-1)
Cryo-preserved CHO-Gal4/GR cells were suspended in complete medium and 5000 cells/25 μl/well were seeded into the wells of 384-well polystyrene assay plates (Thermo Scientific, cat. #4332) and cultured at 37° C., 5% CO2 and 95% humidity. After 24 hours growth medium was carefully removed and replaced by 30 μl Opti-MEM (GIBCO, cat. #31985062) as assay buffer. To test the compounds an 8-point half-log compound dilution curve was generated in 100% DMSO starting from a 2 mM stock and compounds were then diluted 1:50 in Opti-MEM. 10 μl of compounds were then added to the wells containing 30 μl Opti-MEM resulting in a final assay concentration range from 10 μM to 0.003 μM in 0.5% DMSO. Compounds were tested at 8 concentrations in quadruplicate data points. […] Finally, cells were lysed with 20 μl of Triton/Luciferin solution and the signal of the emitted luminescence was recorded at the FLIPR^TETRA for 2 minutes. […]

Chain of glucocorticoid receptor (GAL4 DBD-GR) (P04150 524-758): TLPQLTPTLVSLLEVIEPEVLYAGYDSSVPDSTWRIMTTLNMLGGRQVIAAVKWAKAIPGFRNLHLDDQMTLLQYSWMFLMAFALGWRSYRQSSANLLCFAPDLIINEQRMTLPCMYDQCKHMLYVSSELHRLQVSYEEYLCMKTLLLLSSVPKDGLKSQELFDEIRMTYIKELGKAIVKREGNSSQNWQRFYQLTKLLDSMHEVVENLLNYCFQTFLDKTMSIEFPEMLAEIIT

| Structure (SMILES) | pIC50 |
| --- | --- |
| Cc1cccc([C@@H]2[C@@H](NC(=O)c3ccn(C)n3)[C@H](C)C(=O)N2c2ccc3c(cnn3-c3ccc(F)cc3)c2)c1 (racemic) [Example 75, N-[rac-(2R,3S,4S)-1-[1-(4-Fluorophenyl)-1H-indazol-5-yl]-4-methyl-2-m-tolyl-5-oxo-pyrrolidin-3-yl]-1-methyl-1H-pyrazole-3-carboxylic acid amide] | > 7.00 |
| Cc1cccc([C@@H]2[C@@H](NS(C)(=O)=O)[C@@H](C)C(=O)N2c2ccc3c(cnn3-c3ccc(F)cc3)c2)c1 (racemic) [Example 76, N-[rac-(2R,3S,4R)-1-[1-(4-Fluorophenyl)-1H-indazol-5-yl]-4-methyl-2-m-tolyl-5-oxo-pyrrolidin-3-yl]-methanesulfonic acid amide] | > 7.00 |
| Cc1cccc([C@@H]2[C@@H](NC(=O)C(C)(F)F)[C@@H](C)C(=O)N2c2ccc3c(cnn3-c3ccc(F)cc3)c2)c1 (racemic) [Example 77, 2,2-Difluoro-N-[rac-(2R,3S,4R)-1-[1-(4-fluorophenyl)-1H-indazol-5-yl]-4-methyl-2-m-tolyl-5-oxo-pyrrolidin-3-yl]-propionamide] | > 7.00 |
| COc1ccc([C@@H]2[C@@H](NC(=O)c3scnc3C)[C@H](C)C(=O)N2c2ccc3c(cnn3-c3ccc(F)cc3)c2)cc1 (racemic) [Example 82, N-[rac-(2R,3S,4S)-1-[1-(4-Fluorophenyl)-1H-indazol-5-yl]-2-(4-methoxyphenyl)-4-methyl-5-oxo-pyrrolidin-3-yl]-4-methyl-thiazole-5-carboxylic acid amide] | 6.00 to 7.00 |
| COc1ccc([C@@H]2[C@@H](NC(=O)c3ccn(C)n3)[C@H](C)C(=O)N2c2ccc3c(cnn3-c3ccc(F)cc3)c2)cc1 (racemic) [Example 83, N-[rac-(2R,3S,4S)-1-[1-(4-Fluorophenyl)-1H-indazol-5-yl]-2-(4-methoxyphenyl)-4-methyl-5-oxo-pyrrolidin-3-yl]-1-methyl-1H-pyrazole-3-carboxylic acid amide] | > 7.00 |
| COc1ccc([C@@H]2[C@@H](NC(=O)c3cccnc3)[C@H](C)C(=O)N2c2ccc3c(cnn3-c3ccc(F)cc3)c2)cc1 (racemic) [Example 84, N-[rac-(2R,3S,4S)-1-[1-(4-Fluorophenyl)-1H-indazol-5-yl]-2-(4-methoxyphenyl)-4-methyl-5-oxo-pyrrolidin-3-yl]-pyridine-3-carboxylic acid amide] | 6.00 to 7.00 |
| COc1ccc([C@@H]2[C@@H](NC(=O)c3ncccn3)[C@H](C)C(=O)N2c2ccc3c(cnn3-c3ccc(F)cc3)c2)cc1 (racemic) [Example 85, N-[rac-(2R,3S,4S)-1-[1-(4-Fluorophenyl)-1H-indazol-5-yl]-2-(4-methoxyphenyl)-4-methyl-5-oxo-pyrrolidin-3-yl]-pyrimidine-2-carboxylic acid amide] | 6.00 to 7.00 |
| C[C@H]1C(=O)N(c2ccc3c(cnn3-c3ccc(F)cc3)c2)[C@H](c2ccccc2Cl)[C@H]1NS(C)(=O)=O (racemic) [Example 86, N-[rac-(2R,3S,4R)-2-(2-Chlorophenyl)-1-[1-(4-fluorophenyl)-1H-indazol-5-yl]-4-methyl-5-oxo-pyrrolidin-3-yl]-methanesulfonic acid amide] | > 7.00 |
| C[C@H]1C(=O)N(c2ccc3c(cnn3-c3ccc(F)cc3)c2)[C@H](c2ccccc2Cl)[C@H]1NC(=O)c1cccnc1 (racemic) [Example 87, N-[rac-(2R,3S,4R)-2-(2-Chlorophenyl)-1-[1-(4-fluorophenyl)-1H-indazol-5-yl]-4-methyl-5-oxo-pyrrolidin-3-yl]-pyridine-3-carboxylic acid amide] | > 7.00 |
| C[C@H]1C(=O)N(c2ccc3c(cnn3-c3ccc(F)cc3)c2)[C@H](c2ccccc2Cl)[C@H]1NC(=O)c1ncccn1 (racemic) [Example 88, N-[rac-(2R,3S,4R)-2-(2-Chlorophenyl)-1-[1-(4-fluorophenyl)-1H-indazol-5-yl]-4-methyl-5-oxo-pyrrolidin-3-yl]-pyrimidine-2-carboxylic acid amide] | > 7.00 |
| CC[C@@H]1[C@@H](NC(=O)c2ncccn2)[C@H](Cc2ccccc2)C(=O)N1c1ccc2c(cnn2-c2ccc(F)cc2)c1 (racemic) [Example 90, N-[rac-(2R,3S,4S)-4-Benzyl-2-ethyl-1-[1-(4-fluorophenyl)-1H-indazol-5-yl]-5-oxo-pyrrolidin-3-yl]-pyrimidine-2-carboxylic acid amide] | 4.82 to 6.00 |
| CC[C@@H]1[C@@H](NS(C)(=O)=O)[C@H](Cc2ccccc2)C(=O)N1c1ccc2c(cnn2-c2ccc(F)cc2)c1 (racemic) [Example 91, N-[rac-(2R,3S,4S)-4-Benzyl-2-ethyl-1-[1-(4-fluorophenyl)-1H-indazol-5-yl]-5-oxo-pyrrolidin-3-yl]-methanesulfonic acid amide] | 4.82 to 6.00 |
| C[C@@H]1C(=O)N(c2ccc3c(cnn3-c3ccc(F)cc3)c2)[C@H](c2ccccc2Cl)[C@H]1NC(=O)c1cccnc1 (racemic) [Example 92, N-[rac-(2R,3S,4S)-2-(2-Chlorophenyl)-1-[1-(4-fluorophenyl)-1H-indazol-5-yl]-4-methyl-5-oxo-pyrrolidin-3-yl]-pyridine-3-carboxylic acid amide] | > 7.00 |
| C[C@@H]1C(=O)N(c2ccc3c(cnn3-c3ccc(F)cc3)c2)[C@H](c2ccccc2Cl)[C@H]1NS(C)(=O)=O (racemic) [Example 93, N-[rac-(2R,3S,4S)-2-(2-Chlorophenyl)-1-[1-(4-fluorophenyl)-1H-indazol-5-yl]-4-methyl-5-oxo-pyrrolidin-3-yl]-methanesulfonic acid amide] | > 7.00 |
| CC1C(=O)N(c2ccc3c(cnn3-c3ccc(F)cc3)c2)C(c2ccccc2Cl)C1NC(=O)c1ccn(C)n1 (racemic) [Example 94, N-[rac-(2R,3S,4R)-2-(2-Chlorophenyl)-1-[1-(4-fluorophenyl)-1H-indazol-5-yl]-4-methyl-5-oxo-pyrrolidin-3-yl]-1-methyl-1H-pyrazole-3-carboxylic acid amide] | > 7.00 |
| COc1ccc([C@@H]2[C@@H](NC(=O)C(C)(F)F)[C@H](C)C(=O)N2c2ccc3c(cnn3-c3ccc(F)cc3)c2)cc1 (racemic) [Example 98, 2,2-Difluoro-N-[rac-(2R,3S,4S)-1-[1-(4-fluorophenyl)-1H-indazol-5-yl]-2-(4-methoxyphenyl)-4-methyl-5-oxo-pyrrolidin-3-yl]-propionamide] | > 7.00 |
| CC(F)(F)C(=O)N[C@H]1CC(=O)N(c2ccc3c(cnn3-c3ccc(F)cc3)c2)[C@]1(C)c1ccccc1 (racemic) [Example 100, 2,2-Difluoro-N-[rac-(2R,3S)-1-[1-(4-fluorophenyl)-1H-indazol-5-yl]-2-methyl-5-oxo-2-phenyl-pyrrolidin-3-yl]-propionamide] | > 7.00 |
| C[C@@]1(c2ccccc2)[C@@H](NC(=O)C2CC2)CC(=O)N1c1ccc2c(cnn2-c2ccc(F)cc2)c1 (racemic) [Example 101, N-[rac-(2R,3S)-1-[1-(4-Fluorophenyl)-1H-indazol-5-yl]-2-methyl-5-oxo-2-phenyl-pyrrolidin-3-yl]-cyclopropanecarboxylic acid amide] | 6.00 to 7.00 |
| CC[C@@H]1[C@@H](NC(=O)c2ccn(C)n2)[C@H](Cc2ccccc2)C(=O)N1c1ccc2c(cnn2-c2ccc(F)cc2)c1 (racemic) [Example 104, N-[rac-(2R,3S,4S)-4-Benzyl-2-ethyl-1-[1-(4-fluorophenyl)-1H-indazol-5-yl]-5-oxo-pyrrolidin-3-yl]-1-methyl-1H-pyrazole-3-carboxylic acid amide] | 4.82 to 6.00 |

Reference: patent publication US12358907B2, “Substituted pyrrolidine amides III” (GRÜNENTHAL GMBH, priority 2019, dated 2025)
